Assay results: patent US10576062B2, “Carbamoyloxymethyl triazole cyclohexyl acids as LPA antagonists” (Bristol-Myers Squibb Company, priority 2016, dated 2020)

Target: T1, human LPA1 (Homo sapiens, UniProt Q92633)
T1 construct: expressed in transfected cells; host or cells: Chinese hamster ovary (CHO) cells
Assay: LPA1 functional antagonist assay (LPA-induced calcium flux)
Format: cell-based
Conditions: CHO cells overexpressing human LPA1; inhibition of calcium flux induced by 10 nM LPA; read-out: hLPA1 IC50
Experimental: The effectiveness of compounds of the present invention as LPA1 inhibitors can be determined in an LPA1 functional antagonist assay as follows: Chinese hamster ovary cells overexpressing human LPA1 were plated overnight (15,000 cells/well) in poly-D-lysine coated 384-well microplates (Greiner bio-one, Cat #781946) in DMEM/F12 medium (Gibco, Cat #11039). Following overnight culture, cells were loaded with calcium indicator dye (AAT Bioquest Inc, Cat #34601) for 30 minutes at 37° C. The cells were then equilibrated to room temperature for 30 minutes before the assay. Test compounds solubilized in DMSO were transferred to 384 well non-binding surface plates (Corning, Cat #3575) using the Labcyte Echo acoustic dispense and diluted with assay buffer [1×HBSS with calcium/magnesium (Gibco Cat #14025-092), 20 mM HEPES (Gibco Cat #15630-080) and 0.1% fatty acid free BSA (Sigma Cat #A9205)] to a final concentration of 0.5% DMSO. Diluted compounds were added to the cells by FDSS6000 (Hamamatsu) at final concentrations ranging from 0.08 nM to 5 μM. and were then incubated for 20 min at room temperature at which time LPA (Avanti Polar Lipids Cat #857130C) was added at final concentrations of 10 nM to stimulate the cells. […] IC50 values were determined by fitting data to a 4-parameter logistic equation (GraphPad Prism, San Diego Calif.).

T1 sequence (Q92633 whole entry): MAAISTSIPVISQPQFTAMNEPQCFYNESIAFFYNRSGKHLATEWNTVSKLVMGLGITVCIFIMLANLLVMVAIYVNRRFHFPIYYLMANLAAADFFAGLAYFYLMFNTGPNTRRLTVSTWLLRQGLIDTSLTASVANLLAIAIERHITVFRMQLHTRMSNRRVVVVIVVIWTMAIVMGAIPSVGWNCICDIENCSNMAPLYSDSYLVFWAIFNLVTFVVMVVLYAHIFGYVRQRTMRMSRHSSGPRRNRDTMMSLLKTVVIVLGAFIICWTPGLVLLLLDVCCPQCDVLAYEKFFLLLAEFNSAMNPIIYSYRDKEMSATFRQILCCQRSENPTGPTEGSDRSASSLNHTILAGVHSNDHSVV

Row | Compound | IC50 [nM]
1 | Cc1nc(-c2nnn(C)c2COC(=O)N(C)CC2CCC2)ccc1O[C@H]1CCC[C@](F)(C(=O)O)C1 (racemic) [Example 11, (rac)-3-((6-(5-((((cyclobutylmethyl)(methyl)carbamoyl)oxy)methyl)-1-methyl-1H-1,2,3-triazol-4-yl)-2-methylpyridin-3-yl)oxy)-1-fluorocyclohexane-1-carboxylic Acid] | 12
2 | Cc1nc(-c2nnn(C)c2COC(=O)N(C)CC2CCC2)ccc1O[C@H]1CCC[C@](F)(C(=O)O)C1 (single isomer, unassigned) [Example 13, 3-((6-(5-((((cyclobutylmethyl)(methyl)carbamoyl)oxy)methyl)-1-methyl-1H-1,2,3-triazol-4-yl)-2-methylpyridin-3-yl)oxy)-1-fluorocyclohexane-1-carboxylic Acid] | 95

Continued, values first:

Row | IC50 [nM] | Compound
3 | 132 | CCC(F)CN(C)C(=O)OCc1c(-c2cnc(O[C@H]3CCC[C@H](C(=O)O)C3)c(C)n2)nnn1C (mixture of isomers) [Example 254, (1S,3S)-3-((5-(5-((((2-fluorobutyl)(methyl)carbamoyl)oxy)methyl)-1-methyl-1H-1,2,3-triazol-4-yl)-3-methylpyrazin-2-yl)oxy)cyclohexane-1-carboxylic acid]
4 | 57 | CCC(F)CN(C)C(=O)OCc1c(-c2ccc(O[C@H]3CCC[C@H](C(=O)O)C3)c(C)n2)nnn1C (mixture of isomers) [Example 255, (1S,3S)-3-((6-(5-((((2-fluorobutyl)(methyl)carbamoyl)oxy)methyl)-1-methyl-1H-1,2,3-triazol-4-yl)-2-methylpyridin-3-yl)oxy)cyclohexane-1-carboxylic acid]
5 | 19 | Cc1nc(-c2nnn(C)c2COC(=O)N(C)C[C@H]2C[C@@H]2C)ccc1O[C@H]1CCCC(C(=O)O)C1 (stereo in doubt) [Example 258, (1R,3 S)-3-((2-methyl-6-(1-methyl-5-(((methyl(((1S,2S)-2-methylcyclopropyl)methyl)carbamoyl)oxy)methyl)-1H-1,2,3-triazol-4-yl)pyridin-3-yl)oxy)cyclohexane-1-carboxylic Acid]

Same assay, conditions: human LPA1; read-out: hLPA1 IC50

Row | IC50 [nM] | Compound
6 | 109 | CCCC1CCN(C(=O)OCc2c(-c3ccc(O[C@H]4CCC[C@H](C(=O)O)C4)c(C)n3)nnn2C)C1 (mixture of isomers) [Example 166, (1S,3S)-3-((2-methyl-6-(1-methyl-5-(((3-propylpyrrolidine-1-carbonyl)oxy)methyl)-1H-1,2,3-triazol-4-yl)pyridin-3-yl)oxy)cyclohexane-1-carboxylic acid]
7 | 336 | Cc1nc(-c2nnn(C)c2COC(=O)N2CCC(c3ccccc3)C2)ccc1O[C@H]1CCC[C@H](C(=O)O)C1 (mixture of isomers) [Example 169, (1S,3S)-3-((2-methyl-6-(1-methyl-5-(((3-phenylpyrrolidine-1-carbonyl)oxy)methyl)-1H-1,2,3-triazol-4-yl)pyridin-3-yl)oxy)cyclohexane-1-carboxylic acid]
8 | 61 | Cc1nc(-c2nnn(C)c2COC(=O)N(C)C2CC(F)C2)ccc1O[C@H]1CCC[C@H](C(=O)O)C1 (mixture of isomers) [Example 182, (1S,3S)-3-((6-(5-((((3-fluorocyclobutyl)(methyl)carbamoyl)oxy)methyl)-1-methyl-1H-1,2,3-triazol-4-yl)-2-methylpyridin-3-yl)oxy)cyclohexane-1-carboxylic acid]
9 | 37 | Cc1nc(-c2nnn(C)c2COC(=O)N(C)CC2CC2(C)C)ccc1O[C@H]1CCC[C@H](C(=O)O)C1 (mixture of isomers) [Example 184, (1S,3S)-3-((6-(5-(((((2,2-dimethylcyclopropyl)methyl)(methyl)carbamoyl)oxy)methyl)-1-methyl-1H-1,2,3-triazol-4-yl)-2-methylpyridin-3-yl)oxy)cyclohexane-1-carboxylic acid]
10 | 86 | CN(CC1CC1(C)C)C(=O)OCc1c(-c2ccc(O[C@H]3CCC[C@H](C(=O)O)C3)cn2)nnn1C (mixture of isomers) [Example 185, (1S,3S)-3-((6-(5-(((((2,2-dimethylcyclopropyl)methyl)(methyl)carbamoyl)oxy)methyl)-1-methyl-1H-1,2,3-triazol-4-yl)pyridin-3-yl)oxy)cyclohexane-1-carboxylic acid]
11 | 67 | CN(CC1CC1(F)F)C(=O)OCc1c(-c2ccc(O[C@H]3CCC[C@H](C(=O)O)C3)cn2)nnn1C (mixture of isomers) [Example 186, (1S,3S)-3-((6-(5-(((((2,2-difluorocyclopropyl)methyl)(methyl)carbamoyl)oxy)methyl)-1-methyl-1H-1,2,3-triazol-4-yl)pyridin-3-yl)oxy)cyclohexane-1-carboxylic acid]
12 | 32 | Cc1nc(-c2nnn(C)c2COC(=O)N(C)C2CC3(CCC3)C2)ccc1O[C@H]1CCCC(C(=O)O)C1 (stereo in doubt) [Example 158, (1R,3S)-3-((2-methyl-6-(1-methyl-5-(((methyl(spiro[3.3]heptan-2-yl)carbamoyl)oxy)methyl)-1H-1,2,3-triazol-4-yl)pyridin-3-yl)oxy)cyclohexane-1-carboxylic acid]

Same assay, conditions: read-out: hLPA1 IC50

Row | IC50 [nM] | Compound
13 | 21 | CN(C(=O)OCc1c(-c2ccc(O[C@H]3CCC[C@H](C(=O)O)C3)cn2)nnn1C)C1CCCC1 (racemic) [Example 18, (rac)-3-((6-(5-(((cyclopentyl(methyl)carbamoyl)oxy)methyl)-1-methyl-1H-1,2,3-triazol-4-yl)pyridin-3-yl)oxy)cyclohexane-1-carboxylic acid]
14 | 41 | CN(CCC1CC1)C(=O)OCc1c(-c2ccc(O[C@H]3CCC[C@H](C(=O)O)C3)cc2)nnn1C (racemic) [Example 55, (rac)-trans-3-(4-(5-((((2-cyclopropylethyl)(methyl)carbamoyl)oxy)methyl)-1-methyl-1H-1,2,3-triazol-4-yl)phenoxy)cyclohexane-1-carboxylic acid]
15 | 250 | CCCCCN(C)C(=O)OCc1c(-c2ccc(O[C@H]3CCC[C@H](C(=O)O)C3)cc2)nnn1C (racemic) [Example 58, (rac)-trans-3-(4-(1-methyl-5-(((methyl(pentyl)carbamoyl)oxy)methyl)-1H-1,2,3-triazol-4-yl)phenoxy)cyclohexane-1-carboxylic acid]
16 | 1880 | CCCN(C)C(=O)OCc1c(-c2ccc(O[C@H]3CCC[C@H](C(=O)O)C3)cc2)nnn1C (racemic) [Example 59, (rac)-trans-3-(4-(1-methyl-5-(((methyl(propyl)carbamoyl)oxy)methyl)-1H-1,2,3-triazol-4-yl)phenoxy)cyclohexane-1-carboxylic acid]
17 | 130 | CN(Cc1ccccc1)C(=O)OCc1c(-c2ccc(O[C@H]3CCC[C@H](C(=O)O)C3)cc2)nnn1C (racemic) [Example 60, (rac)-trans-3-(4-(5-(((benzyl(methyl)carbamoyl)oxy)methyl)-1-methyl-1H-1,2,3-triazol-4-yl)phenoxy)cyclohexane-1-carboxylic acid]
18 | 273 | CN(CC1CC1)C(=O)OCc1c(-c2ccc(O[C@H]3CCC[C@H](C(=O)O)C3)cc2)nnn1C (racemic) [Example 61, (rac)-trans-3-(4-(5-((((cyclopropylmethyl)(methyl)carbamoyl)oxy)methyl)-1-methyl-1H-1,2,3-triazol-4-yl)phenoxy)cyclohexane-1-carboxylic acid]
19 | 32 | CCCCN(C)C(=O)OCc1c(-c2ccc(O[C@H]3CCC[C@H](C(=O)O)C3)cc2)nnn1C (racemic) [Example 64, (rac)-trans-3-(4-(5-(((butyl(methyl)carbamoyl)oxy)methyl)-1-methyl-1H-1,2,3-triazol-4-yl)phenoxy)cyclohexane-1-carboxylic acid]
20 | 32 | Cc1nc(-c2nnn(C)c2COC(=O)N(C)C2CCCC2)ccc1O[C@H]1CCC[C@](F)(C(=O)O)C1 (racemic) [Example 88]
21 | 32 | CN(C(=O)OCc1c(-c2ccc(O[C@H]3CCC[C@](F)(C(=O)O)C3)cn2)nnn1C)C1CCCC1 (racemic) [Example 89]
22 | 14 | CN(CC1CCC1)C(=O)OCc1c(-c2ccc(O[C@H]3CCC[C@](F)(C(=O)O)C3)cn2)nnn1C (racemic) [Example 90]
23 | 8 | CC(C1CCC1)N(C)C(=O)OCc1c(-c2ccc(O[C@H]3CCC[C@H](C(=O)O)C3)cc2)nnn1C (single isomer, unassigned) [Example 48]
24 | 14 | CC(C1CCC1)N(C)C(=O)OCc1c(-c2ccc(O[C@H]3CCC[C@H](C(=O)O)C3)cc2)nnn1C (single isomer, unassigned) [Example 49]
25 | 109 | CC(C1CCC1)N(C)C(=O)OCc1c(-c2ccc(O[C@H]3CCC[C@H](C(=O)O)C3)cc2)nnn1C (single isomer, unassigned) [Example 67, trans-3-(4-(5-((((1-cyclobutylethyl)(methyl)carbamoyl)oxy)methyl)-1-methyl-1H-1,2,3-triazol-4-yl)phenoxy)cyclohexane-1-carboxylic acid]
26 | 67 | Cc1nc(-c2nnn(C)c2COC(=O)N(C)C2(C)CC(C)C2)ccc1O[C@H]1CCC[C@H](C(=O)O)C1 (single isomer, unassigned) [Example 106]
27 | 70 | Cc1nc(-c2nnn(C)c2COC(=O)N(C)C2(C)CC(C)C2)ccc1O[C@H]1CCC[C@H](C(=O)O)C1 (single isomer, unassigned) [Example 107]
